According to patent publication US7531565B2, “Imidazolidin-2-one derivatives as selective androgen receptor modulators (SARMS)” (Janssen Pharmaceutica, N.V., priority 2004, dated 2009):

Experiments:
androgen receptor [1] = molecular target: T1, androgen receptor (Rattus norvegicus, UniProt P15207); test: Androgen receptor binding using rat ventral prostate cytosol; design: Male Sprague Dawley or Wistar rats (Charles River, 200-300 g) were used for each preparation; from tissue; host or cells: ventral prostate cytosol of castrated male Sprague Dawley or Wistar rats
T1 sequence (P15207 1-902): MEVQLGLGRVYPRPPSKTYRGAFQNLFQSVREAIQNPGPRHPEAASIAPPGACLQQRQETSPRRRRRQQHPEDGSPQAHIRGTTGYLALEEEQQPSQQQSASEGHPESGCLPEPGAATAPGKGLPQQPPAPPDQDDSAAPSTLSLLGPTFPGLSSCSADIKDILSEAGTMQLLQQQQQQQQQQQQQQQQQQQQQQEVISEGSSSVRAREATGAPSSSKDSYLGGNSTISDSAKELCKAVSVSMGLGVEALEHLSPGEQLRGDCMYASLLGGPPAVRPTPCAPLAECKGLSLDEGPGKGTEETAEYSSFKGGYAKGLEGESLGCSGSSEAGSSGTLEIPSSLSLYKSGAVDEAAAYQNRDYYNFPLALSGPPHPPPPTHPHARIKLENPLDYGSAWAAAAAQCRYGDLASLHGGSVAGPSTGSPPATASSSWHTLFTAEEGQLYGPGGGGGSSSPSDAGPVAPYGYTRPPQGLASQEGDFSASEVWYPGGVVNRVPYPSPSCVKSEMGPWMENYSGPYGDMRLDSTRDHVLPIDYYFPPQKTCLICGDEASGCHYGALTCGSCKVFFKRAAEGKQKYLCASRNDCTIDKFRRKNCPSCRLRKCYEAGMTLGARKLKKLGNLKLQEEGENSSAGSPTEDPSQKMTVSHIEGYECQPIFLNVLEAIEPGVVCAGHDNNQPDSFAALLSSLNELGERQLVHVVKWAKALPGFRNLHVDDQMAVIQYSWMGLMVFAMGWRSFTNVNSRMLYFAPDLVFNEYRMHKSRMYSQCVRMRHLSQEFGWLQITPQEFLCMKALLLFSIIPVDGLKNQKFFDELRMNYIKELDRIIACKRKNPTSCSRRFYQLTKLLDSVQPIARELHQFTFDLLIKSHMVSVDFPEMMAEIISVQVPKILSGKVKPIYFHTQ

androgen receptor [2] = molecular target: T1, androgen receptor; test: COS-7 whole-cell androgen receptor binding assay, adenovirus transduction; design: expressed in transfected cells; conditions: for % Inhibition @ 3 μM: 3 μM (3000 nM), COS-7 cells, [3H]R1881, AdEasy+rAR; for inhibition at 3 µM: read-out: % Inhibition @ 3 μM
Protocol: COS-7 cells were plated in 96-well plates at 20,000 cells per well, in a solution of DMEM/F12 (GIBCO) containing 10% (v/v) charcoal-treated fetal bovine serum (Hyclone) and lacking phenol red. The cells were then incubated overnight at 37° C. in 5% (v/v) humidified CO2.
Test compound solutions were prepared by diluting the test compound in 100% (v/v) DMSO, if necessary. Each dilution yielded a solution which was 625× the final desired test concentration.
Next, 1 mL of DMEM/F12 lacking phenol red was pipetted into each of the wells of a 2-mL 96-well assay block. Then 4 μL of the 625× test compound dilutions were pipetted into each well of the assay block. The wells were carefully mixed by pipette.
In a 15 mL or 50 mL sterile centrifuge tube, a 2.5 nM dilution of tritiated methyl-trienolone in DMEM/F12 lacking phenol red ([^3H]R1881; Perkin-Elmer) was prepared.
In a 15 mL or 50 mL sterile centrifuge tube, a dilution in DMEM/F12 of the adenovirus AdEasy+rAR at a moi of 1:50 per well was prepared.
The medium was removed from the 96-well plates by inversion and the plates dried very briefly, inverted, on a sterile towel. As soon as possible after medium removal, 40 μL of the diluted test compound was added to each well, in duplicate. To each well was then added 40 μL of the 2.5 nM [^3H]R1881 and 20 μL of the diluted adenovirus. The plates were then incubated for 48 hours at 37° C. in 5% (v/v) humidified CO2.
The medium was removed from the above incubated plates by inversion and dried. Each well was then washed with 0.35 mL of 1×PBS. The PBS was then removed from the plates by inversion and the plates dried.
To each well was then added 50 μL of 0.5% (v/v) Triton X-100 (Sigma) in 1×PBS and the plates placed on a rotary shaker for 5 min. The contents of each well were then transferred to an OptiPlate-96 (Packard) scintillation plate. To each well was then added 0.2 mL of Microscint-20 (Packard) and the wells counted on a TopCount (Packard).
Percent inhibition was determined by testing dilutions of the test compound (usually duplicates of 10 μM) in the binding assay. Counts per well were measured and percents of inhibition determined. Androgen receptor binding IC50s were determined by testing serial dilutions of the test compound (usually duplicate ten half-log dilutions starting at 10 μM) in the binding assay. Counts per well were measured and IC50s determined by linear regression.
Representative compounds of the present invention were tested for binding to the androgen receptor according to the procedure described above with results as listed in Table C. Unless otherwise noted, COS binding % inhibition was determined using a concentration of 3000 nM. For compounds tested more than once, each result is listed separately in Table 3 below.

[3] = system: castrated male Sprague Dawley rats; test: Ventral prostate and seminal vesicle weight in vivo assay; design: species or system rat; key: A test compound was said to be “active” if the non weight adjusted prostate weight was ≦60 mg or ≧84 mg; they are listed herein as “inactive” as they did not meet the specified criteria defined above; conditions: immature castrated rats, once daily for five days, usually orally 40 mg/kg, with testosterone propionate 2 mg/kg s.c.
Protocol: Immature (approximately 50 g) castrated male Sprague Dawley rats (Charles River) were treated once daily for five days with test compound (usually given orally at 40 mg/kg in a volume of 0.3 mL, in 30% cyclodextrin or 0.5% methylcellulose vehicle) and with testosterone propionate (given subcutaneously by injection at the nape of the neck at 2 mg/kg, in a volume of 0.1 mL in sesame oil). On the sixth day, the rats were euthanized by asphyxiation in carbon dioxide. Ventral prosatates and seminal vesicles were removed and their wet weights determined. Test compound activity was determined as the percent inhibition of testosterone-enhanced tissue weights, with a vehicle-treated control group set to zero percent and a testosterone alone-treated control group set to 100%.
A test compound was said to be “active” if the non weight adjusted prostate weight was ≦60 mg or ≧84 mg.

SMILES | % Inhibition @ 3 μM (androgen receptor [1]) | % Inhibition @ 3 μM (androgen receptor [2]) | active / inactive by non weight adjusted prostate weight [3] | inhibition at 3 µM (androgen receptor [1]) | inhibition at 3 µM (androgen receptor [2])
COC(=O)C1(C)CN(c2ccccc2)C(=O)N1 (racemic) [Compound 4b] | −71% | 16% | active | – | –
COC(=O)C1(C)CN(c2ccc(OC)cc2)C(=O)N1 (racemic) [Compound 4c] | −36% | −8% | inactive | – | –
COC(=O)C1(C)CN(c2ccc(Cl)c(C(F)(F)F)c2)C(=O)N1 (racemic) [Compound 4d] | 24% | −30% | inactive | – | –
COC(=O)C1(C)CN(c2ccc(C#N)c(C(F)(F)F)c2)C(=O)N1 (racemic) [Compound 4e] | −68% | 27% | active | – | –
CC1(C(=O)O)CN(c2ccccc2)C(=O)N1 (racemic) [Compound 5b] | −110% | 15% | inactive | – | –
COc1ccc(N2CC(C)(C(=O)O)NC2=O)cc1 (racemic) [Compound 5c] | −21% | −11% | inactive | – | –
CC1(C(=O)O)CN(c2ccc(Cl)c(C(F)(F)F)c2)C(=O)N1 (racemic) [Compound 5d] | 28% | −26% | inactive | – | –
CC1(C(=O)Nc2ccccc2)CN(c2ccccc2)C(=O)N1 (racemic) [Compound 6b] | −68% | 22% | inactive | – | –
COc1ccc(N2CC(C)(C(=O)Nc3ccc(C#N)c(C(F)(F)F)c3)NC2=O)cc1 (racemic) [Compound 6c] | 29% | 24% | inactive | – | –
CC1(C(=O)Nc2ccc(C#N)c(C(F)(F)F)c2)CN(c2ccccc2)C(=O)N1 (racemic) [Compound 6d] | 1% | 40% | inactive | – | –
CC1(C(=O)Nc2ccc([N+](=O)[O-])c(C(F)(F)F)c2)CN(c2ccccc2)C(=O)N1 (racemic) [Compound 6e] | −71% | 37% | inactive | – | –
CC1(C(=O)Nc2cccc(C(F)(F)F)c2)CN(c2ccc(F)cc2)C(=O)N1 (racemic) [Compound 6g] | 23% | −40% | inactive | – | –
CC1(C(=O)Nc2cc(C(F)(F)F)cc(C(F)(F)F)c2)CN(c2ccc(F)cc2)C(=O)N1 (racemic) [Compound 6h] | −17% | 76% | active | – | –
CC1(C(=O)Nc2ccc(C(F)(F)F)nc2)CN(c2ccccc2)C(=O)N1 (racemic) [Compound 6j] | −75% | 18% | inactive | – | –
CC1(C(=O)O)CN(c2ccc(F)cc2)C(=O)N1 (stereo not drawn) [Compound 5a, 1-(4-Fluoro-phenyl)-4-methyl-2-oxo-imidazolidine-4-carboxylic acid] | – | – | inactive | 33% | -14%
CC1(C(=O)Nc2ccc(C#N)c(C(F)(F)F)c2)CN(c2ccc(F)cc2)C(=O)N1 (stereo not drawn) [Compound 6a, 1-(4-Fluoro-phenyl)-4-methyl-2-oxo-imidazolidine-4-carboxylic acid (4-cyano-3-trifluoromethyl-phenyl)-amide] | – | – | active | 63% | 43%
